The text below walks through data of patent US9975846B2, “Multivalent compounds for use in the treatment and prevention of brain damage” (MEDICORTEX FINLAND OY, priority 2014, dated 2018).

Experiment [1] concerns mouse model of experimental closed head injury. The experiment can be described thus: Mouse model of experimental closed head injury: cognitive rehabilitation after traumatic brain injury. The class given is in vivo. The settings on record: closed head injury by weight-drop; s.c. from day 8 onwards, three times a week; behavioral tests at baseline, day 7, day 30. On the procedure:
A mouse model of experimental closed head injury disclosed by Yatsiv et al. in FASEB J. 2005, 19:1701-1703 is employed for testing the efficacy of the present compounds to improve functional recovery after a head trauma caused by a weight-drop onto an exposed skull.
Severity of the injury is assessed according to the Neurological Severity Score disclosed by Beni-Adani et al. (J. Pharmacol. Exp. Ther. 2001, 296:57-63) on the basis of ten individual tasks reflecting motor function, alertness, and behaviour.
Each test compound, control compound, or vehicle is administered subcutaneously from day 8 onwards, three times a week.
Behavioral tests, including open field (OF), elevated plus maze (EMP), and social recognition tests are carried out at baseline, on day 7, and day 30.
After euthanization, plasma levels of cytokines and TBI-specific biomarkers, such as S100B, are determined and the brains are evaluated histologically.

Experiment [2] relates to rat model of experimental closed head injury. The experiment can be described thus: Rat model of experimental closed head injury: behaviour, brain edema, lesion volume, inflammatory markers. The settings on record: oral 6 h post-injury. It is filed as in vivo. On the procedure: A rat model of experimental closed head injury disclosed by Bilgen et al. (Neurorehabil. Neural Repair, 2005, 19:219-226) with some modifications is employed for testing the effect of the present compounds on behaviour, brain edema, lesion volume, and inflammatory markers after a head trauma.
Each test compound, control compound, or vehicle is administered orally 6 h post-injury.
In vivo T2 weighted magnetic resonance imaging (MRI) is performed on the animals to depict the pathologies, including lesion size, tissue viability, and brain edema, of the resulting injuries in the corresponding neuronal tissues at 24 h and day 3.
Behavioral tests, including a seven-point neuroscore test modified from Zausinger et al. (Brain Res., 2000, 863:94-105), are used to assess motor and behavioural deficits by a blinded investigator at baseline and on days 1, 3, 7, 14, and 28 post-injury. Additionally, sensimotor recovery of forelimb and hindlimb responses to tactile and proprioceptive stimulation is evaluated by a limb-placing test essentially as described by Jolkkonen et al. in Restor. Neurol. Neurosci., 2000, 17:211-216.
After euthanization, histological evaluation of the injury in the cortex and hippocampus is performed. Additionally, inflammatory markers, astrocytic and microglial activation is evaluated by immunohistochemistry.

In experiment [3] the test system is MPTP mouse model of Parkinson's disease. The experiment can be described thus: MPTP mouse model of Parkinson's disease: dopaminergic system protection. The settings on record: MPTP 4 x 15 mg/kg i.p.; daily i.p. for 14 days from Day 0; striatal tissue by HPLC. The class given is in vivo. On the procedure: In the model, depletion of striatal dopamine (DA) and dopaminergic neuronal death in the substantia nigra (SN) is caused by systemic administration of MPTP (1-methyl-4-phenyl-1,2,3,6-tetrahydropyridine). To be more specific, MPTP is administered twice daily, 3 hours apart, by i.p. injections on Day 0 and Day 1. Each dose is 15 mg/kg, the total dose being 60 mg/kg.
Each test compound, control or vehicle is administered by daily i.p. injections for 14 days starting from Day 0.
After euthanization on Day 14, blood samples are collected by cardiac punctures and stored at −80° C. for further analysis. Blood is removed from the brains by transcardial perfusion with saline. Posterior brain blocks containing the SN are then removed and processed for cryosectioning, while striata are dissected in toto, pooled, weighted, snap-frozen in liquid nitrogen, and stored at −80° C.
20-μm-thick coronal cryosections are analysed immunohistochemically for the expression of tyrosine hydroxylase (TH), a rate-limiting enzyme in dopamine synthesis by counting the number of TH-positive neurons bilaterally in the SN.
Striatal tissue samples are analysed for DA and its two metabolites, 3,4-dihydroxyphenylacetic acid (DOPAC) and homovanillic acid (HVA), levels by HPLC.

In experiment [4] the test system is MPTP model. The experiment can be described thus: Modified MPTP mouse model: dopaminergic system protection and behavioral skills. It is filed as in vivo, mice. The settings on record: MPTP 4 x 10 mg/kg i.p. Day 1; s.c. three times a week Day 2 to Day 21; rotarod, pole, social recognition tests. The procedure:
In this administration scheme, mice are injected i.p. four times with a MPTP dose of 10 mg/kg, two hours apart, on Day 1. Each test compound, control and vehicle are administered s.c. three times a week from Day 2 until Day 21. The present compounds are administered either alone or in combination with a non-steroidal anti-inflammatory drug, antioxidant, and/or metal ions chelate. One week prior to the MPTP dosing, the mice are trained for a rotarod performance test for three days. The rotarod test is then repeated four times during the course of the experiment. Motor performance and coordination is also tested by a pole test. Social recognition test is conducted once on the last days of the experiment.

Setting [5] is: T2 weighted MRI at 24 h and day 3.

With `CCCCC/C=C\C/C=C\CCCCCCCC(=O)Nc1ccc(OC(=O)c2cccc(O)c2O)c(OCCOc2ccccc2OC(=O)c2cccc(O)c2O)c1` [TBI-446, 2-(2-(2-((2,3-dihydroxybenzoyl)oxy)-5-((9Z,12Z)-octadeca-9,12-dienamido)phenoxy)ethoxy)phenyl 2,3-dihydroxybenzoate], the “cognitive rehabilitation of the mice” value in experiment [1] is given as “improved cognitive rehabilitation”. In experiment [2] (setting [5]), the “brain edema after closed head injury” value is given as “decreased” and the “lesion volume after closed head injury” value was “decreased”. Besides, the “levels of inflammatory markers” value in experiment [2] (immunohistochemistry after euthanization) is given as “decreased”. Besides, the “protection of the dopaminergic system from reduction of striatal DA levels caused by MPTP” value in experiment [3] was “protect the dopaminergic system from the reduction of the DA levels”. In experiment [4], the behavioural recovery result is “behavioural recovery”.
